A short description of test [1]: Inhibition of 2-oxoglutarate-dependent human JMJD2E preincubated for 30 mins by FDH coupled assay.
The nature of test [2]: Inhibition of 2-oxoglutarate-dependent human JMJD2E in presence of 50 uM Fe by FDH coupled assay.
Test [3] is described as follows: Inhibition of 2-oxoglutarate-dependent human JMJD2E in presence of excess H3K9me3 peptide and 10 uM Fe2 by FDH coupled assay.
The nature of test [4]: Inhibition of 2-oxoglutarate-dependent human JMJD2E in presence of excess 2-oxoglutarate and 10 uM Fe2 by FDH coupled assay.
Test [5] is described as follows: Inhibition of human collagene prolyl-3-hydroxylase.
A short description of test [6]: Inhibition of human collagene prolyl-4-hydroxylase.
For the next test, the target named is Prolyl hydroxylase EGLN2 (Homo sapiens, UniProt Q96KS0). Kind of test: Inhibition of human recombinant HIF PHD1.
Prolyl hydroxylase EGLN2, sequence (Q96KS0 whole entry): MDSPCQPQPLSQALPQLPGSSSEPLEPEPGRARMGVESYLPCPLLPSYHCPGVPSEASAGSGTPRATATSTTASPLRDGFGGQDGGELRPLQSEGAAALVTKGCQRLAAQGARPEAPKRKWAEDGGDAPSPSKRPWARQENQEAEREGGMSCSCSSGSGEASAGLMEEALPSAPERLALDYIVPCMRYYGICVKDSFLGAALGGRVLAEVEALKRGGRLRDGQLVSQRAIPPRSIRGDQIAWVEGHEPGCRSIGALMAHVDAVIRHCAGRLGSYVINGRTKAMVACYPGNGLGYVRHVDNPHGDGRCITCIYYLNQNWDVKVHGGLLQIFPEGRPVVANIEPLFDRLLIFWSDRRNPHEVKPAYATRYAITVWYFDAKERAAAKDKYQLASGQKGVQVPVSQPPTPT
In another test the target is Prolyl hydroxylase EGLN3 (Homo sapiens, UniProt Q9H6Z9). Kind of test: Inhibition of human recombinant HIF PHD3.
Prolyl hydroxylase EGLN3, sequence (Q9H6Z9 whole entry): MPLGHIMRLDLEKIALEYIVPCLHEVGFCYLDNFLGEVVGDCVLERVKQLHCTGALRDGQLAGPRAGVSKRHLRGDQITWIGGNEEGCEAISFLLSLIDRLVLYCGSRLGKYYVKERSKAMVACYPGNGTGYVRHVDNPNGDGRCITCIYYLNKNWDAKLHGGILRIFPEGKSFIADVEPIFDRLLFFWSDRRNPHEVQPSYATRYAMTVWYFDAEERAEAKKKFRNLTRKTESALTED
In test [7] the target is T1, Egl nine homolog 1 (Homo sapiens, UniProt Q9GZT9). In words: Inhibition of 2-oxoglutarate-dependent human recombinant HIF PHD2 preincubated for 1 hr.
T1 sequence (Q9GZT9 whole entry): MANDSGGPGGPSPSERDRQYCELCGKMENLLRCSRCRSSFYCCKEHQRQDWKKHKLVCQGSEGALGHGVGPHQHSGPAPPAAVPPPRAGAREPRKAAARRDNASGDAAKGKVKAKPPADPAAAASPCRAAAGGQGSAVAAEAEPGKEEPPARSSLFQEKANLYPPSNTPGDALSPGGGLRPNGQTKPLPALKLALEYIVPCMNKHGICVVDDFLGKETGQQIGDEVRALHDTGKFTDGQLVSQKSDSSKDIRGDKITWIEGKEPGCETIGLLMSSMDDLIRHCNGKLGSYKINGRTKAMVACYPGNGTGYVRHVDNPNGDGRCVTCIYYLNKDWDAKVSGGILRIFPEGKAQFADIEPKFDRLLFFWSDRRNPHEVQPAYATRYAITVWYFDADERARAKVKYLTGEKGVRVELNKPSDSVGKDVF
The target of test [8] is Hypoxia-inducible factor 1-alpha inhibitor (Homo sapiens, UniProt Q9NWT6). Kind of test: Inhibition of human FIH.
Hypoxia-inducible factor 1-alpha inhibitor, sequence (Q9NWT6 whole entry): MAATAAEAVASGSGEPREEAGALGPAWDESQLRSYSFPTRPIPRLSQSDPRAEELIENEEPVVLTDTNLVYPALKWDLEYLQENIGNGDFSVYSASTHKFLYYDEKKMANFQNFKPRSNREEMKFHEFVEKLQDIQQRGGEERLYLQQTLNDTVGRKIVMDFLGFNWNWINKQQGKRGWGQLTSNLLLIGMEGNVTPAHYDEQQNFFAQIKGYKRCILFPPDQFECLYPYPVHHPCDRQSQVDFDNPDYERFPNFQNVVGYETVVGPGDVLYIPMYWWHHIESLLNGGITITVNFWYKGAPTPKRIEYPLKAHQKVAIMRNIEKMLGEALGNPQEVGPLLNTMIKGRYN
Test [9] addresses T1, Egl nine homolog 1. In words: Inhibition of human recombinant PHD2.

The IC50 is the point on the concentration scale where inhibition reaches its midpoint. Turning to `O=C(NO)c1cccc(O)c1`, the IC50 in test [1] amounted to 4.8 µM; in [2], 19 µM; in test [3] it was 28 µM; in test [4], 300 µM.
As to `O=C(O)c1ccncc1C(=O)O`, the IC50 in test [3] and in test [4] was greater than 10000 µM in each case.
As usually defined, the Ki is the dissociation constant of the complex between target and ligand, obtained from inhibition or displacement. `O=C(O)c1ccnc(C(=O)O)c1`: the Ki in test [5] is 9 µM; in [6] it was 2 µM; at Prolyl hydroxylase EGLN2, 7 µM; at Prolyl hydroxylase EGLN3 it was 7 µM. Further, the IC50 in test [2] stood at 1.8 µM; in test [4], 4.7 µM.
Take `O=C(O)c1cncc(C(=O)O)c1`: the IC50 in test [3] and in test [4] was greater than 10000 µM throughout.
`O=C(O)C(=O)N[C@H](CCc1ccccc1)C(=O)O`: the values for the IC50 in test [1], in test [3] and in test [4] were 39 µM, 100 µM and 270 µM, respectively.
In the case of `O=C(O)C(=O)N[C@H](Cc1ccccc1)C(=O)O`, in [4], the IC50 was 590 µM.
On to `O=C(O)c1cc(C(=O)O)ncn1`, for which the IC50 was determined as 27 µM in test [3] and 73 µM in test [4].
In the case of `O=C(NO)c1cc(O)ccc1Oc1ccccc1`, the IC50 is 360 µM in [3] and 340 µM in test [4].
Take `COc1ccc(O)cc1C(=O)NO`: the values for the IC50 in test [2], in test [3] and in test [4] were 160 µM, 230 µM and 300 µM, respectively.
In the case of `CCCC(=O)O` [BUTYRIC ACID], the IC50 in [3] and in test [4] was greater than 10000 µM in each case.
On to `O=C(O)c1cccc(C(=O)O)n1` [DIPICOLINIC ACID], for which the results for the IC50 in [2], in test [3] and in test [4] were 120 µM, 120 µM and 250 µM, respectively.
In the case of `O=C(O)/C=C/C(=O)O` [FUMARIC ACID], the IC50 was 3 µM at Egl nine homolog 1 [7], 2300 µM in test [1], 1600 µM in test [3] and greater than 10000 µM in [4].
As for `O=C(O)CNC(=O)C(=O)O` [N-OXALYLGLYCINE], the Ki in test [8] stood at 1200 µM.
For `O=C(O)c1ccc(C(=O)O)nc1` [PYRIDINE-2,5-DICARBOXYLIC ACID], the Ki is greater than 1000 µM in [5]; 0.8 µM in [6]; greater than 300 µM at Egl nine homolog 1 [9]; greater than 300 µM at Prolyl hydroxylase EGLN2; greater than 300 µM on Prolyl hydroxylase EGLN3. Moreover, the IC50 was 180 µM in test [3] and 1900 µM in [4].
As for `O=C(O)c1cccnc1C(=O)O` [QUINOLINIC ACID], the IC50 was greater than 5000 µM in test [3] and greater than 10000 µM in test [4].
Turning to `O=C(O)CCC(=O)O` [SUCCINIC ACID], the IC50 in test [1] was 320 µM; in [3] it was 710 µM; in test [4], greater than 10000 µM.
As to `CC(/C=C/C(=O)NO)=C\[C@@H](C)C(=O)c1ccc(N(C)C)cc1` [TRICHOSTATIN], half-maximal inhibition in test [1] (IC50) was put at 28 µM.
